Experimental data reported in PubChem BioAssay AID248 (DTP/NCI, 2004).
“And” between values parts separate entries of the source, which are not always exact repeats. Equal values may be shown once. Toxic doses and inconclusive results are not listed. Cut-off read from the data, not from the text of the source: active = T/C of 150% or more; inactive = T/C below 125%.

System: L1210 leukemia ip in BDF1 mice, survival T/C
Assay: NCI In Vivo Anticancer Drug Screen. Data for tumor model L1210 Leukemia (intraperitoneal) in B6D2F1 (BDF1) mice
Conditions: endpoint: mean survival time, higher = longer survival
How it was run: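 Value reflects the ratio of survival in compound-treated mice to survival in vehicle-treated controls, with both groups carrying the same transplanted tumor.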

[1] = dose: 50.0 mg/kg/injection, schedule: Q01DX001 (ip), vehicle: saline
[2] = dose: 100.0 mg/kg/injection, schedule: Q01DX001 (ip), vehicle: saline
[3] = dose: 200.0 mg/kg/injection, schedule: Q01DX001 (ip), vehicle: saline
[4] = dose: 400.0 mg/kg/injection, schedule: Q01DX001 (ip), vehicle: saline
[5] = dose: 100.0 mg/kg/injection, schedule: Q04DX003 (ip), vehicle: saline with Tween-80
[6] = dose: 100.0 mg/kg/injection, schedule: Q04DX002 (ip), vehicle: Klucel (hydroxypropylcellulose) (HPC)
[7] = dose: 200.0 mg/kg/injection, schedule: Q04DX002 (ip), vehicle: Klucel (hydroxypropylcellulose) (HPC)
[8] = dose: 400.0 mg/kg/injection, schedule: Q04DX002 (ip), vehicle: Klucel (hydroxypropylcellulose) (HPC)
[9] = dose: 100.0 mg/kg/injection, schedule: Q01DX009 (ip), vehicle: Klucel (hydroxypropylcellulose) (HPC)
[10] = dose: 200.0 mg/kg/injection, schedule: Q01DX009 (ip), vehicle: Klucel (hydroxypropylcellulose) (HPC)

Measured: T/C

O=S(=O)(n1ccnc1)C(F)(F)F
inactive: dose: 5.0 mg/kg/injection, schedule: Q01DX001 (ip), vehicle: saline 102 % of control | dose: 10.0 mg/kg/injection, schedule: Q01DX001 (ip), vehicle: saline 98 % of control | dose: 20.0 mg/kg/injection, schedule: Q01DX001 (ip), vehicle: saline 102 % of control | dose: 40.0 mg/kg/injection, schedule: Q01DX001 (ip), vehicle: saline 102 % of control

CC1(C)OCC(=NNC(N)=O)CO1
inactive: dose: 50.0 mg/kg/injection, schedule: Q01DX009 (ip), vehicle: saline 96 % of control | dose: 100.0 mg/kg/injection, schedule: Q01DX009 (ip), vehicle: saline 93 % of control | dose: 100.0 mg/kg/injection, schedule: Q04DX003 (ip), vehicle: saline 90 % of control | dose: 200.0 mg/kg/injection, schedule: Q04DX003 (ip), vehicle: saline 90 % of control

COCC(=O)c1ccccc1
inactive: [1] 96 % of control | [2] 98 % of control | [3] 98 % of control | [4] 93 % of control

Clc1ccccc1-c1ncc2cnccn12
inactive: dose: 25.0 mg/kg/injection, schedule: Q01DX009 (ip), vehicle: saline with Tween-80 98 % of control | dose: 25.0 mg/kg/injection, schedule: Q04DX003 (ip), vehicle: saline with Tween-80 90 % of control | dose: 50.0 mg/kg/injection, schedule: Q01DX009 (ip), vehicle: saline with Tween-80 101 % of control | dose: 50.0 mg/kg/injection, schedule: Q04DX003 (ip), vehicle: saline with Tween-80 102 % of control | dose: 100.0 mg/kg/injection, schedule: Q01DX009 (ip), vehicle: saline with Tween-80 107 % of control | [5] 96 % of control and 92 % of control

FC(F)(F)c1ccc2c(c1)N(CCCN1CCN(CCC3OCCCO3)CC1)c1ccccc1S2
inactive: dose: 0.78 mg/kg/injection, schedule: Q04DX003 (ip), vehicle: saline 102 % of control | dose: 1.56 mg/kg/injection, schedule: Q04DX003 (ip), vehicle: saline 101 % of control | dose: 3.12 mg/kg/injection, schedule: Q04DX003 (ip), vehicle: saline 102 % of control | dose: 6.25 mg/kg/injection, schedule: Q04DX003 (ip), vehicle: saline 96 % of control | dose: 12.5 mg/kg/injection, schedule: Q04DX003 (ip), vehicle: saline 112 % of control

COc1cc(NC(=O)Nc2c(C)cc(I)cc2C(=O)O)c(I)cc1I
inactive: dose: 75.0 mg/kg/injection, schedule: Q01DX001 (ip), vehicle: other 87 % of control | dose: 150.0 mg/kg/injection, schedule: Q01DX001 (ip), vehicle: other 92 % of control | dose: 300.0 mg/kg/injection, schedule: Q01DX001 (ip), vehicle: other 91 % of control

O=C(c1ccccc1)c1cc(Cl)ccc1O
inactive: dose: 75.0 mg/kg/injection, schedule: Q01DX009 (ip), vehicle: Klucel (hydroxypropylcellulose) (HPC) 102 % of control | [6] 100 % of control | dose: 150.0 mg/kg/injection, schedule: Q01DX009 (ip), vehicle: Klucel (hydroxypropylcellulose) (HPC) 98 % of control | [7] 93 % of control | dose: 300.0 mg/kg/injection, schedule: Q01DX009 (ip), vehicle: Klucel (hydroxypropylcellulose) (HPC) 94 % of control | [8] 96 % of control

CC[N+]12CC=C(CO)C1C(O)CC2 (configuration not stated)
inactive: dose: 50.0 mg/kg/injection, schedule: Q01DX009 (ip), vehicle: Klucel (hydroxypropylcellulose) (HPC) 100 % of control | [9] 95 % of control | [10] 95 % of control

COc1cc([N+](=O)[O-])cc2c1OC1(C=C2)N(C)c2ccccc2C1(C)C (configuration not stated)
inactive: dose: 25.0 mg/kg/injection, schedule: Q04DX002 (ip), vehicle: gum acacia 111 % of control | dose: 50.0 mg/kg/injection, schedule: Q04DX002 (ip), vehicle: gum acacia 97 % of control and 100 % of control | dose: 100.0 mg/kg/injection, schedule: Q04DX002 (ip), vehicle: gum acacia 100 % of control | dose: 200.0 mg/kg/injection, schedule: Q04DX002 (ip), vehicle: gum acacia 108 % of control

CN(N)c1cc(=O)[nH]c(N)n1
inactive: [6] 101 % of control | [7] 97 % of control | [8] 92 % of control

CC(/C=C\c1cccc([N+](=O)[O-])c1)=N\NC(=O)c1ccncc1
inactive: [5] 93 % of control | dose: 200.0 mg/kg/injection, schedule: Q04DX003 (ip), vehicle: saline with Tween-80 101 % of control | dose: 400.0 mg/kg/injection, schedule: Q04DX003 (ip), vehicle: saline with Tween-80 96 % of control

CC(=O)C1(O)CCC2C3CC=C4CC(O)CCC4(C)C3CCC21C (configuration not stated)
inactive: dose: 100.0 mg/kg/injection, schedule: Q01DX001 (ip), vehicle: carboxymethylcellulose (CMC) 102 % of control | dose: 100.0 mg/kg/injection, schedule: Q01DX009 (ip), vehicle: carboxymethylcellulose (CMC) 87 % of control and 90 % of control | dose: 100.0 mg/kg/injection, schedule: Q04DX002 (ip), vehicle: carboxymethylcellulose (CMC) 98 % of control and 100 % of control | dose: 100.0 mg/kg/injection, schedule: Q04DX003 (ip), vehicle: carboxymethylcellulose (CMC) 97 % of control | dose: 200.0 mg/kg/injection, schedule: Q01DX001 (ip), vehicle: carboxymethylcellulose (CMC) 94 % of control | dose: 200.0 mg/kg/injection, schedule: Q01DX009 (ip), vehicle: carboxymethylcellulose (CMC) 96 % of control and 97 % of control | dose: 200.0 mg/kg/injection, schedule: Q04DX002 (ip), vehicle: carboxymethylcellulose (CMC) 100 % of control and 110 % of control | dose: 200.0 mg/kg/injection, schedule: Q04DX003 (ip), vehicle: carboxymethylcellulose (CMC) 98 % of control | dose: 400.0 mg/kg/injection, schedule: Q01DX001 (ip), vehicle: carboxymethylcellulose (CMC) 98 % of control | dose: 400.0 mg/kg/injection, schedule: Q01DX009 (ip), vehicle: carboxymethylcellulose (CMC) 93 % of control and 94 % of control | dose: 400.0 mg/kg/injection, schedule: Q04DX002 (ip), vehicle: carboxymethylcellulose (CMC) 97 % of control and 100 % of control | dose: 400.0 mg/kg/injection, schedule: Q04DX003 (ip), vehicle: carboxymethylcellulose (CMC) 88 % of control

O=C(O)c1ccc(OCCCCOc2ccccc2)c(Cl)c1
inactive: [9] 98 % of control | [10] 98 % of control | dose: 400.0 mg/kg/injection, schedule: Q01DX009 (ip), vehicle: Klucel (hydroxypropylcellulose) (HPC) 95 % of control

Cc1nc2c(C(N)=O)nc(C)n2nc1C
inactive: dose: 50.0 mg/kg/injection, schedule: Q04DX002 (ip), vehicle: saline with Tween-80 93 % of control | dose: 100.0 mg/kg/injection, schedule: Q01DX001 (ip), vehicle: saline with Tween-80 103 % of control | dose: 100.0 mg/kg/injection, schedule: Q04DX002 (ip), vehicle: saline with Tween-80 105 % of control and 107 % of control | dose: 200.0 mg/kg/injection, schedule: Q01DX001 (ip), vehicle: saline with Tween-80 106 % of control | dose: 200.0 mg/kg/injection, schedule: Q04DX002 (ip), vehicle: saline with Tween-80 121 % of control | dose: 400.0 mg/kg/injection, schedule: Q01DX001 (ip), vehicle: saline with Tween-80 111 % of control | dose: 400.0 mg/kg/injection, schedule: Q04DX002 (ip), vehicle: saline with Tween-80 99 % of control | dose: 600.0 mg/kg/injection, schedule: Q01DX001 (ip), vehicle: saline with Tween-80 110 % of control

Cc1ncc(C(N)=O)c2c1OC(C)(C)OC2
inactive: [1] 100 % of control | [2] 97 % of control | [3] 94 % of control | [4] 88 % of control
